Results on eleven compounds are retold here after US12139481B2, “Compositions comprising macrocycle derivatives incorporating bridged macrocycles and methods of producing and using same” (Southwestern Oklahoma State University, priority 2015, dated 2024).

pIC50: −log10 of the molar value. Where two headings read alike, the source gives them in different places.

For orientation: IC50 means the concentration at which inhibition is half-maximal.

Assay [1] has as its system L. donovani promastigotes. As to the kind of experiment: Antileishmanial Alamar Blue assay on promastigotes. The assay is classed as cell-based, Leishmania donovani. Conditions: for X more potent than Pentamidine: L. donovani, ratio of molar IC50 to Pentamidine. As to the method:
Methods: The compounds were screened in vitro against the promastigote forms of the leishmania parasites employing the Alamar Blue assay as discussed below.
Antileishmanial activity of the compounds was tested in vitro against a culture of L. donovani promastigotes, grown in RPMI 1640 medium supplemented with 10% fetal calf serum (FCS, Gibco Chem. Co., Grand Island, NY) at 26° C. A 3-day-old culture was diluted to 5×10^5 promastigotes/mL. Drug dilutions (50-3.1 μg/mL) were prepared directly in cell suspension in 96-well plates. Plates were incubated at 26° C. for 48 hours, and growth of leishmania promastigotes was determined by Alamar Blue assay. Standard fluorescence was measured on a FLUOstar® Galaxy plate reader (BMG Lab Technologies, Ortenberg, Germany) at an excitation wavelength of 544 nm and emission wavelength of 590 nm. Pentamidine and amphotericin B were used as the standard antileishmanial agents. Percent growth was calculated and plotted versus test concentration for computing the IC50 values.
A general note: The colour change of resazurin is a common sign of viable cells or microbes.

Assay [2] deals with Cryptococcus neoformans ATCC 90113. As to the kind of experiment: Antimicrobial microdilution assay against Cryptococcus neoformans (modified CLSI/NCCLS, optical density). It is filed as cell-based. Conditions: for X more potent than Amphotericin B: C. neoformans, ratio of molar IC50 to Amphotericin B; for C. neoformans IC50 / pIC50: in vitro, C. neoformans ATCC 90113; for pIC50: read-out: C. neoformans IC50 (mol/L). The procedure:
Summary: Various macrocyclic derivatives constructed in accordance with the presently disclosed and/or claimed inventive concept(s) were screened in vitro against Cryptococcus neoformans ATCC 90113 using a microdilution assay. The minimum fungicidal concentration (MFC), the lowest test concentration that kills the organism, was determined in broth media.
Antimicrobial assay: Cryptococcus neoformans ATCC 90113 were obtained from the American Type Culture Collection (Manassas, VA.). The susceptibility testing was performed using a modified version of the CLSI (formerly NCCLS) methods (see below), and optical density was used to monitor growth. Samples were serially diluted in 20% DMSO/saline and transferred in duplicate to 96-well flat bottom microplates. Microbial inocula were prepared by correcting the OD630 of cell/spore suspensions in incubation broth RPMI at pH 6.0 to afford final desired target inocula. Amphotericin B (“AMB;” ICN Biomedicals, OH) was used as drug control. The organism concentration was read at 630 nm using the Biotek Powerwave XS plate reader (Bio-Tek instruments, VT) prior to and after incubation. Minimum fungicidal concentrations were determined by removing 5 μL from each clear well, transferring to agar, and incubating until growth was seen. The MFC/MBC is defined as the lowest test concentration that kids the organism (allows no growth on agar).
References for NCCLS methods referenced above: 1 NCCLS. Reference method for broth dilution antifungal susceptibility testing of yeasts, Vol. 22. Approved standard, 2nd ed. Wayne: National Committee for Clinical Laboratory Standards; 2002: 1-51. 2 NCCLS. Reference method for broth dilution antifungal susceptibility testing of conidium forming filamentous fungi, Vol. 18. Proposed standard M38-P. Wayne: National Committee for Clinical Laboratory Standards; 1998: 1-39. 3 NCCLS. Methods for dilution antimicrobial susceptibility tests for bacteria that grow aerobically, Vol. 20. NCCLS Document M7-A5. Wayne: National Committee for Clinical Laboratory Standards; 2000: 1-58.
The term “IC50” as used herein will be understood to refer to a test concentration in mol/L that affords 50% inhibition of the microbe relative to negative and positive controls. […] The abbreviation “MFC” as used herein will be understood to refer to a minimum fungicidal concentration, or the lowest test concentration in mol/L that kills the organism. All IC50s are calculated using the XLfit® fit curve fitting software (ID Business Solutions Ltd, Guildford, Surrey, UK).
General Experimental Procedures. All organisms were obtained from the American Type Culture Collection (Manassas, VA) and include the fungi Candida albicans ATCC 90028, C. glabrata ATCC 90030, C. krusei ATCC 6258, and Cryptococcus neoformans ATCC 90113, and the bacteria Staphylococcus aureus ATCC 29213 and methicillin-resistant S. aureus ATCC 33591 (MRS). All organisms were tested using modified versions of the CLSI (formerly NCCLS) methods. For all organisms, optical density was used to monitor growth (NCCLS, Reference Method for Broth Dilution Antifungal Susceptibility Testing of Yeasts; Approved Standard M27-A2. National Committee on Clinical Laboratory Standards, 2002 22 (15); and NCCLS, Methods for Dilution Antimicrobial Susceptibility Tests for Bacteria that Grow Aerobically; Approved Standard, Seventh Edition M7-A7. National Committee on Clinical Laboratory Standards, 2006. 26(2)).
Samples (dissolved in DMSO) were serially-diluted in 20% DMSO/saline and transferred (10 μL) in duplicate to 96 well flat bottom microplates.
(In general: Dilution methods test growth across graded concentrations, often in twofold steps.)

Where [3] appears, read: promastigotes, 48 hours, Alamar Blue.
The mark [4] stands for this setting: promastigotes, 48 hours, Alamar Blue, read-out: L. donavani IC50.

Consider p-CB-cyclam-cyclen [CMB008D], for which the “X more potent than Pentamidine” value in assay [1] came to 0.08. Moreover, in assay [1] (setting [3]), the “L. donovani IC50” value was found to be 38.75 µg/mL. In addition, the pIC50 in assay [1] (setting [4]) is 4.16. Also, in assay [2], the “X more potent than Amphotericin B” value stood at 0.17, the “C. neoformans IC50” value is not above 0.800 µg/mL and the pIC50 was 5.84.

As to `Cl.Cl.Cl.Cl.Cl.Cl.Cl.Cl.c1cc(CN2CCNCCCN3CCN(CC3)CC2)ccc1CN1CCNCCCN2CCN(CC2)CC1` [OB45B, p-SB-homocyclens HCl salt], the “X more potent than Pentamidine” value in assay [1] turned out to be 0.13. Further, in assay [1] (setting [3]), the “L. donovani IC50” value stood at 34.55 µg/mL. Moreover, the pIC50 in assay [1] (promastigotes, 48 hours, Alamar Blue, HCl salt, read-out: L. donavani IC50) is 4.37. For the same compound, in assay [2], the “X more potent than Amphotericin B” value was 0.67 and the “C. neoformans IC50” value was 0.290 µg/mL. In addition, in assay [2] (HCl salt), the pIC50 is 6.45.

As for “[Co2(m-CB-Homocyclens)(OAc)2.6][PF6]1.4 [CDG036]”, the “X more potent than Pentamidine” value in assay [1] came to 0.25. Besides, the “L. donovani IC50” value in assay [1] (setting [3]) was 22.23 µg/mL. The pIC50 in assay [1] (setting [4]) is 4.67. In assay [2], the “X more potent than Amphotericin B” value turned out to be 0.08, the “C. neoformans IC50” value was determined as 3.040 µg/mL and the pIC50 is 5.53.

“[Cu2(m-CB-Homocyclens)(OAc)2.5][PF6]1.5 [CDG035]”: the “X more potent than Pentamidine” value in assay [1] was determined as 0.21. In assay [1] (setting [3]), the “L. donovani IC50” value amounted to 26.37 µg/mL. The pIC50 in assay [1] (setting [4]) is 4.60. Also, in assay [2], the “X more potent than Amphotericin B” value stood at 0.08, the “C. neoformans IC50” value turned out to be 3.260 µg/mL and the pIC50 was 5.51.

Take `CC(=O)[O-].CC(=O)[O-].F[P-](F)(F)(F)(F)F.F[P-](F)(F)(F)(F)F.O.[Zn+2].[Zn+2].c1cc(CN2CCCN3CCNCCCN(CC3)CC2)ccc1CN1CCCN2CCNCCCN(CC2)CC1` [TJH417B, [Zn2(H2-p-CB-cyclams)(OAc)2][PF6]2•H2O]: the “X more potent than Pentamidine” value in assay [1] turned out to be 0.17. In assay [1] (setting [3]), the “L. donovani IC50” value turned out to be 34.93 µg/mL. Besides, in assay [2], the “X more potent than Amphotericin B” value came to 0.08 and the “C. neoformans IC50” value worked out at 3.120 µg/mL.

`N=C(N)c1ccc(OCCCCCOc2ccc(C(=N)N)cc2)cc1` [PENT, Pentamidine, reference compound]: the “X more potent than Pentamidine” value in assay [1] is given as 1.00. Besides, the pIC50 in assay [1] (Leishmania donovani, 48 h, read-out: L. donavani IC50 (mol/L)) was 5.27; in assay [1] (Leishmania donovani, read-out: IC50 against L. donovani) it was 5.27. Also, in assay [1] (Leishmania donovani, promastigotes, 48 hours, Alamar Blue, read-out: L. donovani IC50), the IC50 was determined as 1.81 µg/mL.

On to `CC(=O)[O-].Clc1cc(CN2CCNCCN3CCN(CC3)CC2)cc(Cl)n1.F[P-](F)(F)(F)(F)F.[Ni+2]` [OB106, [Ni(dcp1-SB-cyclen)(OAc)]PF6], for which the “X more potent than Pentamidine” value in assay [1] was determined as 0.14. Besides, the “L. donovani IC50” value in assay [1] (setting [3]) stood at 23.19 µg/mL. Moreover, the pIC50 in assay [1] (setting [4]) is 4.43. For the same compound, in assay [2], the “X more potent than Amphotericin B” value is on record as 0.38, the “C. neoformans IC50” value is 0.390 µg/mL and the pIC50 is 6.20.

On to `Clc1cc(CN2CCCNCCN(Cc3cc(Cl)nc(Cl)c3)CCCNCC2)cc(Cl)n1` [DJD29, (DCP)2Cyclam], for which the “X more potent than Pentamidine” value in assay [1] was 0.28. Further, in assay [1] (setting [3]), the “L. donovani IC50” value came out at 9.76 µg/mL. Besides, in assay [1] (setting [4]), the pIC50 is 4.73.

Take `c1cc(CN2CCCN3CCNCCCN(CC3)CC2)ccc1CN1CCCN2CCNCCCN(CC2)CC1` [JGL44, p-CB-H2Bcyclams]: the “X more potent than Pentamidine” value in assay [1] is recorded as 0.11. In addition, in assay [1] (setting [3]), the “L. donovani IC50” value came to 28.08 µg/mL. Further, the pIC50 in assay [1] (setting [4]) is 4.30. Further, in assay [2], the “X more potent than Amphotericin B” value amounted to 0.73, the “C. neoformans IC50” value turned out to be 0.180 µg/mL and the pIC50 is 6.49.

For [Zn(dcp1-SB-cyclen)(OAc)]PF6 [OB110A], in assay [1], the “X more potent than Pentamidine” value amounted to 0.11. Also, in assay [1] (setting [3]), the “L. donovani IC50” value was determined as 38.32 µg/mL. Besides, the pIC50 in assay [1] (setting [4]) was 4.30. In assay [2], the “X more potent than Amphotericin B” value was determined as 0.30, the “C. neoformans IC50” value was 0.610 µg/mL and the pIC50 was 6.09.

In the case of Fe(Bn2Cyclam)Cl2•0.5 H2O [TJH398A], the “X more potent than Pentamidine” value in assay [1] was 1.20. Besides, in assay [1] (setting [3]), the “L. donovani IC50” value is 2.28 µg/mL. The pIC50 in assay [1] (setting [4]) is 5.35.
